Here are results for twelve compounds from ChEMBL document CHEMBL4627402, “Design and Synthesis of Styrenylcyclopropylamine LSD1 Inhibitors” (ACS Med Chem Lett, 2020).

Calls of active or inactive are those of the source. No cut-off for these calls is given here.

Data set [1] deals with T1, Lysine-specific histone demethylase 1A (Homo sapiens, UniProt O60341).
Data set [2] deals with Kasumi 1. As to the kind of experiment: Growth inhibition on human Kasumi-1 cells measured upto 12 days by Cell Titer-Glo luminescent cell viability assay. It is filed as functional. The settings on record: Kasumi 1, 288 h.
In data set [3] the target is T1, Lysine-specific histone demethylase 1A. The source holds these as a separate data set.
Data set [4] shares this target. This is another data set of the same source.
Data set [5] shares this target. The source holds these as a separate data set.
For data set [6] the target is unchanged. The source holds these as a separate data set.
Description: Inhibition of LSD1 in human MV4-11 cells assessed as induction of LY96 mRNA expression incubated for 16 hrs by chemiluminescent method
Data set [7] can be described thus: Clearance in mouse at 1 mg/kg, iv. It is filed as ADME, organism-based. Particulars: in vivo.
Data set [8] can be described thus: Toxicity in CB17 SCID mouse xenografted with human Kasumi-1 cells assessed body weight loss at 1.5 mg/kg, po administered for 14 days. Particulars: in vivo, 336 h. It is filed as organism-based.
The nature of data set [9]: Metabolic stability in human liver microsomes assessed as intrinsic clearance. It is filed as ADME, Microsome. Particulars: read-out: CLH.
For data set [10], the system named is Kasumi 1. As to the kind of experiment: Antitumor activity against human Kasumi-1 cells xenografted in oral dosed CB17 SCID mouse assessed as tumor growth inhibition administered for 14 days. It is filed as functional, organism-based.
Data set [11] is described as follows: Metabolic stability in dog liver microsomes assessed as intrinsic clearance. It is filed as ADME, Canis lupus familiaris, Microsome. Particulars: read-out: CLH.
Data set [12] deals with MOLM-13. As to the kind of experiment: Growth inhibition on human MOLM13 cells measured upto 12 days by Cell Titer-Glo luminescent cell viability assay. Particulars: MOLM-13, 288 h. It is filed as functional.
Data set [13] relates to SET-2. As to the kind of experiment: Growth inhibition on human SET2 cells measured upto 12 days by Cell Titer-Glo luminescent cell viability assay. Particulars: SET-2, 288 h. It is filed as functional.
Data set [14] concerns the target T2, Amine oxidase [flavin-containing] A (Homo sapiens, UniProt P21397).
T2 sequence (P21397 whole entry): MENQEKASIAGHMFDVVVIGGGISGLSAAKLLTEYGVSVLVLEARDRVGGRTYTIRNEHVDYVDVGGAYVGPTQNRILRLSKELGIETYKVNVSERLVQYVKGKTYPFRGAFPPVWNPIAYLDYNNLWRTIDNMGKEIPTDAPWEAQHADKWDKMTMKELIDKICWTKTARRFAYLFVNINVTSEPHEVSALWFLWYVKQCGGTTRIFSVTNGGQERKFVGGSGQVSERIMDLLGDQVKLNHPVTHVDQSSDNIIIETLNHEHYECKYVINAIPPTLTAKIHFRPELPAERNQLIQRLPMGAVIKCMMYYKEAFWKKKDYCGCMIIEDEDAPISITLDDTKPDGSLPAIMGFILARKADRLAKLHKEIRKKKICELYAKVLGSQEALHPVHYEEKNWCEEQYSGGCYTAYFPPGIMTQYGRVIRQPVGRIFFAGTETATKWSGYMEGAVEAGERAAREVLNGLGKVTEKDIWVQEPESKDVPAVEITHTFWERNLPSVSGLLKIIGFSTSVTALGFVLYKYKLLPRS
As to the kind of experiment: Inhibition of MAO-A (unknown origin).

Data set [15] relates to NOMO-1. As to the kind of experiment: Growth inhibition on human NOMO1 cells measured upto 12 days by Cell Titer-Glo luminescent cell viability assay. The data set is classed as functional. The settings on record: NOMO-1, 288 h.
Data set [16] can be described thus: AUC (0 to infinity) in mouse at 5 mg/kg, po. It is filed as ADME, organism-based. The arrangement: dose 5 mg/kg, time infinity, route oral. The settings on record: in vivo.
Data set [17] in a line: Volume of distribution at steady state in mouse at 1 mg/kg, iv. The data set is classed as ADME, organism-based. The settings on record: in vivo, read-out: Vdss.
Data set [18] has as its target T3, Amine oxidase [flavin-containing] B (Homo sapiens, UniProt P27338).
T3 sequence (P27338 whole entry): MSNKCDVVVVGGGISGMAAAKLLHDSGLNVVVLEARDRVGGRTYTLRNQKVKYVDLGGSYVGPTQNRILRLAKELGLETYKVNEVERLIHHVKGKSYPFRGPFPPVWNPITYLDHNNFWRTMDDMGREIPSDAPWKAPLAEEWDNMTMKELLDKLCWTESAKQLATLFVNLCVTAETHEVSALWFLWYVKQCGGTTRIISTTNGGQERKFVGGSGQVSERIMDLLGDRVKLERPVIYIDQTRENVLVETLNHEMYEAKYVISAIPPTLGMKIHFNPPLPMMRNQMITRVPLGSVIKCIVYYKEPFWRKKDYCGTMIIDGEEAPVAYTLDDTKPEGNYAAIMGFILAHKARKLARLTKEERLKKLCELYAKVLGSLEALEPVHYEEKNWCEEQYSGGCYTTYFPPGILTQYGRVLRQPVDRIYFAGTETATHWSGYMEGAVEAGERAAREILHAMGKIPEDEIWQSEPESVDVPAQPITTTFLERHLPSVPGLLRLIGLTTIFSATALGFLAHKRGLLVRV
As to the kind of experiment: Inhibition of MAO-B (unknown origin).

Data set [19] can be described thus: Oral bioavailability in mouse at 5 mg/kg. The data set is classed as ADME, organism-based. The settings on record: in vivo.
In data set [20] the test system is Mus musculus. As to the kind of experiment: Induction of LY96 mRNA in CB17-scid mouse xenografted with human Kasumi-1 cells at 0.5 and 1.5 mg/kg, po administered for 14 days. It is filed as functional, organism-based.
The test system of data set [21] is OCI-AML-3. As to the kind of experiment: Growth inhibition on human OCI-AML3 cells measured upto 12 days by Cell Titer-Glo luminescent cell viability assay. The settings on record: OCI-AML-3, 288 h. It is filed as functional.
Data set [22] in a line: Cmax in mouse at 5 mg/kg, po. The data set is classed as ADME, organism-based. The arrangement: dose 5 mg/kg, route oral. The settings on record: in vivo.
For data set [23], the system named is SKM-1. As to the kind of experiment: Growth inhibition on human SKM1 cells measured upto 12 days by Cell Titer-Glo luminescent cell viability assay. Particulars: SKM-1, 288 h. The data set is classed as functional.
Data set [24] can be described thus: Half life in mouse at 1 mg/kg, iv. The data set is classed as ADME, organism-based. The settings on record: in vivo.
Data set [25] deals with OCI-AML-5. As to the kind of experiment: Growth inhibition on human OCI-AML5 cells measured upto 12 days by Cell Titer-Glo luminescent cell viability assay. It is filed as functional. The settings on record: OCI-AML-5, 288 h.
Data set [26] in a line: Toxicity in CB17 SCID mouse xenografted with human Kasumi-1 cells assessed body weight loss at 0.5 mg/kg, po administered for 14 days. The data set is classed as organism-based. Particulars: in vivo, 336 h.
Data set [27] can be described thus: Metabolic stability in mouse liver microsomes assessed as intrinsic clearance. Particulars: read-out: CLH. It is filed as ADME, Microsome.
In data set [28] the test system is MV4-11. As to the kind of experiment: Growth inhibition on human MV4-11 cells measured upto 12 days by Cell Titer-Glo luminescent cell viability assay. It is filed as functional. Particulars: MV4-11, 288 h.
Data set [29] is described as follows: Metabolic stability in rat liver microsomes assessed as intrinsic clearance. The data set is classed as ADME, Microsome. Particulars: read-out: CLH.
Data set [30] can be described thus: Protein binding in plasma (unknown origin) assessed as parent compound remaining. The data set is classed as ADME, cell-free.

`O=C(O)c1ccc(CN2CCC(CN[C@@H]3C[C@H]3c3ccccc3)CC2)cc1` [GSK2879552]: the Ki in data set [1] was 9.6 nM. The compound also had a GI50 in [2] of 20 nM. Further, in data set [3], the Kinact amounted to 0.39 min⁻¹. Besides, in data set [4], the Ratio came out at 680 M⁻¹ s⁻¹. Further, the IC50 in data set [5] worked out at 212 nM. Further, it took 54 nM to reach a half-maximal effect in data set [6] (EC50).

`CC/C(=C\c1ccccc1)[C@@H]1C[C@H]1NC1CC2(C1)CN(CCO)C2` showed a clearance in data set [7] of 162 mL/min/kg. For the same compound, the Activity entry in data set [8] is “<= 5%”; in data set [26], “Non-Toxic”. In addition, the microsomal CLint in data set [9] was 9 µL/min/mg; in data set [11], 41 µL/min/mg; in data set [27], 25 µL/min/mg; in data set [29] it was 15 µL/min/mg. The same compound came in with a Ki in [1] of 6.1 nM. For the same compound, the TGI entry in [10] was “Dose-dependent effect”. For the same compound, the GI50 in [2] amounted to 1 nM; in data set [12], 893 nM; in data set [13], 37 nM; in [15] it was 78 nM; in data set [21] it was 271 nM; in data set [23] it was 14 nM. Moreover, the GI50 in data set [25] stood at 332 nM; in [28], 5 nM. The compound also came in with a Kinact in [3] of 0.38 min⁻¹. For the same compound, the Ratio in [4] was determined as 1e+06 M⁻¹ s⁻¹. Further, the IC50 in data set [14] is > 80 µM; in data set [18], > 80 µM; in data set [5], < 3 nM. The area under the curve AUC(0-inf) in data set [16] came out at 189 ng·h/mL. For the same compound, in data set [17], the Vd turned out to be 118 L/kg. Further, the bioavailability in [19] was 59%. Further, the result in data set [20] was Active. Further, the Cmax in data set [22] stood at 40 ng/mL. Moreover, the EC50 in data set [6] was determined as 2 nM. The compound also showed a half-life in data set [24] of 1520 min.

`C(=C\C1CC1NCC1CCNCC1)/c1ccccc1` (stereo not given): the fraction unbound in [30] was ≤ 0.05.

On to `CC/C(=C\c1ccccc1)[C@@H]1C[C@H]1NC1CC2(CCN(CCO)CC2)C1`, for which the microsomal CLint in data set [9] worked out at 10 µL/min/mg; in data set [11], 39 µL/min/mg; in data set [27], 28 µL/min/mg; in data set [29], 19 µL/min/mg. Besides, it took 1 nM to inhibit growth in data set [2] by half (GI50). Besides, the IC50 in [5] was < 3 nM. Further, in data set [6], the EC50 worked out at 5 nM.

As to `CC/C(=C\c1ccccc1)[C@@H]1C[C@H]1NC1CC2(CNC2)C1`, the microsomal CLint is 11 µL/min/mg in data set [9], 14 µL/min/mg in [11], 17 µL/min/mg in data set [27] and 19 µL/min/mg in data set [29]. Further, the GI50 in data set [2] came out at 11 nM.

As to `CC/C(=C\c1ccccc1)[C@@H]1C[C@H]1NC1CC2(C1)CN(S(C)(=O)=O)C2`, the microsomal CLint turned out to be 67 µL/min/mg in data set [9], 105 µL/min/mg in data set [11], 812 µL/min/mg in data set [27] and 80 µL/min/mg in data set [29]. This compound showed a GI50 in [2] of 17 nM.

Take `CC/C(=C\c1ccccc1)[C@@H]1C[C@H]1NC1CCN(CCO)CC1`: the microsomal CLint stood at 41 µL/min/mg in [9], 106 µL/min/mg in data set [11], 46 µL/min/mg in data set [27] and 27 µL/min/mg in data set [29]. In data set [2], this compound yielded a GI50 of 3 nM. For the same compound, in data set [5], the IC50 is < 2.6 nM. Further, the EC50 in data set [6] turned out to be 4 nM.

In the case of `CC/C(=C\c1ccccc1)[C@@H]1C[C@H]1NC1CC2(C1)CN(CC(F)F)C2`, the microsomal CLint was 133 µL/min/mg in data set [9], 480 µL/min/mg in [11], 883 µL/min/mg in data set [27] and 175 µL/min/mg in data set [29]. In data set [2], this compound came in with a GI50 of 110 nM. Further, in [5], the IC50 is < 3 nM. In addition, the midpoint of the response in [6], the EC50, lay at 7 nM.

As for `CC/C(=C\c1ccccc1)[C@@H]1C[C@H]1N[C@H]1CC[C@H](NCCO)CC1` (racemic), the IC50 in [5] is < 1.8 nM. For the same compound, a half-maximal response in data set [6] (EC50) required 6 nM.

As to `C/C(=C\c1ccccc1)[C@@H]1C[C@H]1NC1CCNCC1` (racemic), the IC50 in [5] is < 2.8 nM.

On to `CC/C(=C\c1ccccc1)[C@@H]1C[C@H]1NC1CC2(C1)CN(C1COC1)C2`, for which the microsomal CLint is 49 µL/min/mg in data set [9], 283 µL/min/mg in data set [11], 85 µL/min/mg in [27] and 43 µL/min/mg in data set [29]. This compound also returned a GI50 in [2] of 1 nM.

With `CC/C(=C\c1ccccc1)[C@@H]1C[C@H]1NC1CC2(C1)CN(C(C)=O)C2`, the microsomal CLint in data set [9] was found to be 18 µL/min/mg; in data set [11], 87 µL/min/mg; in data set [27] it was 76 µL/min/mg; in [29], 48 µL/min/mg. The compound further returned a GI50 in data set [2] of 41 nM.
